We go through 21 compounds from patent US20220089578A1, “COMPOUNDS AS GLP-1R AGONISTS” (Terns Pharmaceuticals, Inc., priority 2020, published 2022).

SMILES strings stand for the structures.

A word on the EC50: it is the concentration needed to bring the measured effect to its halfway point.

Chain of human GLP-1R (P43220 24-463): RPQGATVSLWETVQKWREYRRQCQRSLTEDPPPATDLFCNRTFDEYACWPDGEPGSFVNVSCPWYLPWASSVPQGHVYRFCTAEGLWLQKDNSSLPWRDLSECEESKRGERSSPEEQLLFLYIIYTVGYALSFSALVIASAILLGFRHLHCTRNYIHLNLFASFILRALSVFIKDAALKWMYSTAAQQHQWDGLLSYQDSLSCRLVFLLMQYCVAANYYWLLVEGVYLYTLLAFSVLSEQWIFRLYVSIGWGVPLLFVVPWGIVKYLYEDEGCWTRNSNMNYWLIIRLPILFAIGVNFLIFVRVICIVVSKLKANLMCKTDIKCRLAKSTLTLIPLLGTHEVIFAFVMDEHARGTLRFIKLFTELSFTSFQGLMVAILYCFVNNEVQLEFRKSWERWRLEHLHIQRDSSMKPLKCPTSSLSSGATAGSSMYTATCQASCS

One experiment has as its target human GLP-1R (Homo sapiens, UniProt P43220). The experiment can be described thus: GLP-1R Cell Assay 1: cAMP Hunter CHO-K1 GLP1R Gs cell line, HitHunter cAMP assay. In kind it is cell-based. The note with it: Table 2; cAMP Hunter CHO-K1 GLP1R Gs cells; percent activity normalized to Exendin-4. An outline of the steps:
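CHO-K1 cells overexpressing wild-type human GLP-1R treated with 3-fold serially diluted compounds for 30-60 min at 37 °C. cAMP measured by EFC competitive luminescent immunoassay; activity normalised to Exendin-4, duplicate runs, EC50 by nonlinear regression.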
For orientation: Changes in cAMP serve as a functional read-out for many G protein-coupled receptors.
For the compound `CCn1cncc1Cn1c(CN2CCC(c3cccc(OCc4ccc(C#N)cc4F)n3)CC2)nc2ccc(C(=O)O)cc21` [Compound 142, 2-((4-(6-((4-cyano-2-fluorobenzyl)oxy)pyridin-2-yl)piperidin-1-yl)methyl)-1-((1-ethyl-1H-imidazol-5-yl)methyl)-1H-benzo[d]imidazole-6-carboxylic acid], the response was half-maximal at 0.00833 nM (EC50).

Regarding `C[C@H]1c2ccc(C#N)cc2CCN1c1cccc(N2CCN(Cc3nc4ccc(C(=O)O)cc4n3C[C@@H]3CCO3)CC2)n1` [Compound 84], the EC50 came to 102 nM.

Compound `N#Cc1ccc(COc2cccc(C3CCN([C@H]4CCn5c4nc4ccc(C(=O)O)cc45)CC3)n2)c(F)c1` (single isomer, unassigned) [Compound 6-P2] returned a half-maximal effective concentration (EC50) of over 500 nM.

As for `N#Cc1ccc(COc2ccn(C3CCN(Cc4nc5ccc(C(=O)O)cc5n4C[C@@H]4CCO4)CC3)n2)c(F)c1` [Compound 92, (S)-2-((4-(3-((4-cyano-2-fluorobenzyl)oxy)-1H-pyrazol-1-yl)piperidin-1-yl)methyl)-1-(oxetan-2-ylmethyl)-1H-benzo[d]imidazole-6-carboxylic acid], the EC50 came out at 8.35 nM.

`N#Cc1ccc2c(c1)CN(c1ccn(C3CCN(Cc4nc5ccc(C(=O)O)cc5n4C[C@@H]4CCO4)CC3)n1)CC2` [Compound 25, (S)-2-((4-(3-(7-cyano-3,4-dihydroisoquinolin-2(1H)-yl)-1H-pyrazol-1-yl)piperidin-1-yl)methyl)-1-(oxetan-2-ylmethyl)-1H-benzo[d]imidazole-6-carboxylic acid] registered an EC50 of over 500 nM.

The compound `N#Cc1ccc(COc2nn(C3CCN(Cc4nc5ccc(C(=O)O)cc5n4C[C@@H]4CCO4)CC3)cc2C2CC2)c(F)c1` [Compound 132, (S)-2-((4-(3-((4-cyano-2-fluorobenzyl)oxy)-4-cyclopropyl-1H-pyrazol-1-yl)piperidin-1-yl)methyl)-1-(oxetan-2-ylmethyl)-1H-benzo[d]imidazole-6-carboxylic acid] yielded an EC50 of 34 nM.

`O=C(O)c1ccc2nc(CN3CC[C@]4(c5cccc(OCc6ccccc6)n5)C[C@@H]4C3)n(C[C@@H]3CCO3)c2c1` [Compound 97, 2-(((1S,6R)-6-(6-(benzyloxy)pyridin-2-yl)-3-azabicyclo[4.1.0]heptan-3-yl)methyl)-1-(((S)-oxetan-2-yl)methyl)-1H-benzo[d]imidazole-6-carboxylic acid] yielded an EC50 of 18.6 nM.

Turning to `CC1(COc2cccc(N3CCN(Cc4nc5ccc(C(=O)O)cc5n4C[C@@H]4CCO4)CC3)n2)CC(F)(F)C1` [Compound 34, (S)-2-((4-(6-((3,3-difluoro-1-methylcyclobutyl)methoxy)pyridin-2-yl)piperazin-1-yl)methyl)-1-(oxetan-2-ylmethyl)-1H-benzo[d]imidazole-6-carboxylic acid], the EC50 is 333 nM.

On to `O=C(O)c1ccc2nc(CN3CCN(c4cccc(OCC5CCCCC5)n4)CC3)n(C[C@@H]3CCO3)c2c1` [Compound 1, (S)-2-((4-(6-(cyclohexylmethoxy)pyridin-2-yl)piperazin-1-yl)methyl)-1-(oxetan-2-ylmethyl)-1H-benzo[d]imidazole-6-carboxylic acid], for which the EC50 amounted to 42.5 nM.

Turning to `O=C(O)c1ccc2nc(CN3CCN(c4cccc(OCC5CC6(CCOCC6)C5)n4)CC3)n(C[C@@H]3CCO3)c2c1` [Compound 48, (S)-2-((4-(6-((7-oxaspiro[3.5]nonan-2-yl)methoxy)pyridin-2-yl)piperazin-1-yl)methyl)-1-(oxetan-2-ylmethyl)-1H-benzo[d]imidazole-6-carboxylic acid], the half-maximal effective concentration (EC50) is over 500 nM.

`N#Cc1ccc(Cn2ncc3ccc(N4CCN(Cc5nc6ccc(C(=O)O)cc6n5C[C@@H]5CCO5)CC4)nc32)c(F)c1` [Compound 30, (S)-2-((4-(1-(4-cyano-2-fluorobenzyl)-1H-pyrazolo[3,4-b]pyridin-6-yl)piperazin-1-yl)methyl)-1-(oxetan-2-ylmethyl)-1H-benzo[d]imidazole-6-carboxylic acid] displayed a concentration for a half-maximal effect (EC50) of 16.3 nM.

Regarding `N#Cc1ccc2c(c1)CN(c1cccc(N3CCN(Cc4nc5ccc(C(=O)O)cc5n4C[C@@H]4CCO4)CC3)n1)C2` [Compound 57, (S)-2-((4-(6-(5-cyanoisoindolin-2-yl)pyridin-2-yl)piperazin-1-yl)methyl)-1-(oxetan-2-ylmethyl)-1H-benzo[d]imidazole-6-carboxylic acid], the EC50 is over 500 nM.

Take `O=C(O)c1ccc2nc(CN3CCC(n4nccc4COc4ccccc4)CC3)n(C[C@@H]3CCO3)c2c1` (single isomer, unassigned) [Compound 26-P2]: the EC50 was over 500 nM.

As for `N#Cc1ccc2c(c1)CCN(c1cccc(N3CCN(Cc4nc5ccc(C(=O)O)cc5n4C[C@@H]4CCO4)CC3)n1)CC2` [Compound 2, (S)-2-((4-(6-(7-cyano-4,5-dihydro-1H-benzo[d]azepin-3(2H)-yl)pyridin-2-yl)piperazin-1-yl)methyl)-1-(oxetan-2-ylmethyl)-1H-benzo[d]imidazole-6-carboxylic acid], the EC50 was over 500 nM.

In turn, `C[C@@H]1c2ccc(C#N)cc2CCN1c1cccc(N2CCN(Cc3nc4ccc(C(=O)O)cc4n3C[C@@H]3CCO3)CC2)n1` [Compound 83] displayed a concentration giving a half-maximal response (EC50) of 229 nM.

Consider `O=C(O)c1ccc2nc(CN3CCC(n4ccc(OCc5ccccc5)n4)CC3)n(C[C@@H]3CCO3)c2c1` [Compound 22, (S)-2-((4-(3-(benzyloxy)-1H-pyrazol-1-yl)piperidin-1-yl)methyl)-1-(oxetan-2-ylmethyl)-1H-benzo[d]imidazole-6-carboxylic acid], for which the half-maximal effective concentration (EC50) is 3740 nM.

`N#Cc1cccc2c1CN(c1cccc(N3CCN(Cc4nc5ccc(C(=O)O)cc5n4C[C@@H]4CCO4)CC3)n1)CC2` [Compound 109, (S)-2-((4-(6-(8-cyano-3,4-dihydroisoquinolin-2(1H)-yl)pyridin-2-yl)piperazin-1-yl)methyl)-1-(oxetan-2-ylmethyl)-1H-benzo[d]imidazole-6-carboxylic acid]: the EC50 is 3.65 nM.

`N#Cc1ccc(COc2nn(C3CCN(Cc4nc5ccc(C(=O)O)cc5n4C[C@@H]4CCO4)CC3)cc2C(F)(F)F)c(F)c1` [Compound 117, (S)-2-((4-(3-((4-cyano-2-fluorobenzyl)oxy)-4-(trifluoromethyl)-1H-pyrazol-1-yl)piperidin-1-yl)methyl)-1-(oxetan-2-ylmethyl)-1H-benzo[d]imidazole-6-carboxylic acid]: the concentration giving a half-maximal response (EC50) came to 5.93 nM.

For the compound `O=C(O)c1ccc2nc(CN3CCN(c4ccc5cnn(Cc6ccccc6)c5n4)CC3)n(C[C@@H]3CCO3)c2c1` [Compound 27, (S)-2-((4-(1-benzyl-1H-pyrazolo[3,4-b]pyridin-6-yl)piperazin-1-yl)methyl)-1-(oxetan-2-ylmethyl)-1H-benzo[d]imidazole-6-carboxylic acid], a half-maximal response (EC50) required 232 nM.

Compound `N#Cc1ccc(COc2cccc(C3CCN([C@@H]4CCCn5c4nc4ccc(C(=O)O)cc45)CC3)n2)c(F)c1` [Compound 87, (R)-4-(4-(6-((4-cyano-2-fluorobenzyl)oxy)pyridin-2-yl)piperidin-1-yl)-1,2,3,4-tetrahydrobenzo[4,5]imidazo[1,2-a]pyridine-8-carboxylic acid] returned an EC50 of over 500 nM.

The experiment is the same for the next values; noted with them: Table 3; cAMP Hunter CHO-K1 GLP1R Gs cells; percent activity normalized to Exendin-4.
In turn, `N#Cc1ccc([C@H]2CCc3c(cccc3N3CCN(Cc4nc5ccc(C(=O)O)cc5n4C[C@@H]4CCO4)CC3)O2)c(F)c1` (single isomer, unassigned) [Compound 151-P1] showed an EC50 of 261 nM.
